Data reported in BindingDB's records for doi:10.1016/j.bmcl.2009.07.064 (University of Glasgow, 2009).

What was measured:
[1] = biological target: Sodium-dependent dopamine transporter (Rattus norvegicus, UniProt P23977); assay: Displacement of [3H]WIN-35428 from DAT in Sprague-Dawley rat brain after 2 hrs by liquid scintillation analysis
[2] = biological target: Sodium-dependent serotonin transporter (Rattus norvegicus, UniProt P31652); assay: Displacement of [3H]citalopram from SERT in Sprague-Dawley rat brain after 2 hrs by liquid scintillation analysis
Transporter = Transporter (Rattus norvegicus, UniProt Q63380); assay: Displacement of [3H]nisoxetine from NAT in Sprague-Dawley rat brain after 4 hrs by liquid scintillation analysis
Chain of Transporter (Q63380 whole entry): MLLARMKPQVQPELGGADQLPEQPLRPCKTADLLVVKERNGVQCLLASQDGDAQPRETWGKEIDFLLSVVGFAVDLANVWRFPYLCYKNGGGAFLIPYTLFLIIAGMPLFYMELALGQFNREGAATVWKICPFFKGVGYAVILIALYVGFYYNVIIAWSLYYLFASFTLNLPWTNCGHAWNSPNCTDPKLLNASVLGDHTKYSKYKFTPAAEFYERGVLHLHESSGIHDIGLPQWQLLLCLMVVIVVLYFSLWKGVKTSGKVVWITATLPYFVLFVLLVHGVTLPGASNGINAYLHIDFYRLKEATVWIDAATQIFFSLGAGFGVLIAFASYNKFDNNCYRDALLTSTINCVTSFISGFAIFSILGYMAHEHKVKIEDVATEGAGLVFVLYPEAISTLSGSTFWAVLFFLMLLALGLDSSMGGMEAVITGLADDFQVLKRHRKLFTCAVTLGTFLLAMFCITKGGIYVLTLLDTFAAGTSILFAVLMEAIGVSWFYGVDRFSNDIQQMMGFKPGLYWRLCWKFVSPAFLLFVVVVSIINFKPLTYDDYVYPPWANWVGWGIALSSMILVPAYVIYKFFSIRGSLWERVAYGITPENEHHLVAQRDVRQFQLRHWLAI

Chain of Sodium-dependent dopamine transporter (P23977 whole entry): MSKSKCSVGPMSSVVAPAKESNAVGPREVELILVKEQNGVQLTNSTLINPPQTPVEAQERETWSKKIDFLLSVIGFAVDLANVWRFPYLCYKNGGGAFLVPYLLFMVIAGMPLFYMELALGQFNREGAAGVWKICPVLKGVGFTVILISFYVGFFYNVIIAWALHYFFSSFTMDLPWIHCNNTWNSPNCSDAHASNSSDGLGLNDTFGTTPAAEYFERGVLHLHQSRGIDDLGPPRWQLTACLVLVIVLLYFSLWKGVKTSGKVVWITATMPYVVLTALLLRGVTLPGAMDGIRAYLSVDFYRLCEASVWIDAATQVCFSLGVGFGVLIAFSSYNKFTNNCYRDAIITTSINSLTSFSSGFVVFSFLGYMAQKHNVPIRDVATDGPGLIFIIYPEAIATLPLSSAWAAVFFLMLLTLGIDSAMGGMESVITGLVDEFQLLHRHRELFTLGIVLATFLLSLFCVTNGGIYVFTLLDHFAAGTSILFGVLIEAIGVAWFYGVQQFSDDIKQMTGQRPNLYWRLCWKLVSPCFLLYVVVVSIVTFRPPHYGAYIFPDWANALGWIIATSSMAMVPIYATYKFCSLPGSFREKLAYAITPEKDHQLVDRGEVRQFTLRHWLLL
Chain of Sodium-dependent serotonin transporter (P31652 whole entry): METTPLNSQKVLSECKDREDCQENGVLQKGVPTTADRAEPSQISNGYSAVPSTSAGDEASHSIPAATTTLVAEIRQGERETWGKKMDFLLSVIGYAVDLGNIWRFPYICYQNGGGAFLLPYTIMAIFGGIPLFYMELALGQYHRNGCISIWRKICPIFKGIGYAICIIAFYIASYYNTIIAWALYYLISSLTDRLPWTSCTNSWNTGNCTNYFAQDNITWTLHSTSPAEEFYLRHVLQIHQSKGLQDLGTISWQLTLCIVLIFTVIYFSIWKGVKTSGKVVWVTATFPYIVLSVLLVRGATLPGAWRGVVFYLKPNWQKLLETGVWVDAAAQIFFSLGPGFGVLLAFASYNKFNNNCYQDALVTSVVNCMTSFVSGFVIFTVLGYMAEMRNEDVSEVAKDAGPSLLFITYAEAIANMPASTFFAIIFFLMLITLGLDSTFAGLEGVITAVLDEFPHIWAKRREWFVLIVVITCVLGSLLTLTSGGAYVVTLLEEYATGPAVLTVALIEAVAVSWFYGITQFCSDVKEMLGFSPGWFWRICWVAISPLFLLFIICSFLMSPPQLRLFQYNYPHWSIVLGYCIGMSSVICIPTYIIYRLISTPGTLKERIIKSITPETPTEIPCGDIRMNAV

Compound	Ki [1] [µM]	Ki [2] [µM]	Ki (Transporter) [µM]
Ic1ccccc1O[C@@H](c1ccccc1)[C@H]1CNCCO1 [(2R,3S)-2-[(2-Iodophenoxy)phenylmethyl]morpholine]	0.526	0.0515	0.0084
Ic1cccc(O[C@@H](c2ccccc2)[C@H]2CNCCO2)c1 [(2R,3S)-2-[(3-Iodophenoxy)phenylmethyl]morpholine]	1.9	0.154	1.7
Ic1ccc(O[C@@H](c2ccccc2)[C@H]2CNCCO2)cc1 [(2R,3S)-2-[(4-Iodophenoxy)phenylmethyl]morpholine]	2.1	0.0345	1.1
